The nature of assay [1]: A549 cell cytotoxicity, dose response, cytotoxicity control, plate reader, cherry-pick, antagonist series (AID 743412). In kind it is functional, cell-based.
Assay [2] in a line: toxicity toward HepG2 liver cells – cell-based, plate reader, cherry-pick, antagonist series, cytotoxicity control, dose response (AID 743416). The assay is classed as functional.
Assay [3] is described as follows: blockers of bursicon-stimulated LGR2 cAMP reporter – cell-based, HEK293, CRE-luciferase reporter, cherry pick, set 2, dose response (AID 743343).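 Further: transfected cells were stimulated with diluted bursicon conditioned medium after compound addition.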 In kind it is functional.
Assay [4] can be described thus: blockade of melanocortin 4 receptor signaling – cell-based, plate reader, cherry pick, counter-screen for LGR2 antagonist project, dose response (AID 743444).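 Further: transfected HEK 293 cells stimulated with alpha-MSH peptide; potency of inhibitors of the alpha-MSH evoked signal.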 The assay is classed as functional.
In a further assay the target is Paired box protein Pax-8 (Homo sapiens, UniProt Q06710). Kind of assay: PAX8 transcriptional activity inhibition in RMG-I – RMG-I cells, luciferase, cherry-pick, dose response (AID 687027).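 Further: luciferase reporter driven by Pax8 target thyroperoxidase promoter measured by SteadyGlo luminescence.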 The assay is classed as functional, cell-based.
Sequence of Paired box protein Pax-8 (Q06710 whole entry): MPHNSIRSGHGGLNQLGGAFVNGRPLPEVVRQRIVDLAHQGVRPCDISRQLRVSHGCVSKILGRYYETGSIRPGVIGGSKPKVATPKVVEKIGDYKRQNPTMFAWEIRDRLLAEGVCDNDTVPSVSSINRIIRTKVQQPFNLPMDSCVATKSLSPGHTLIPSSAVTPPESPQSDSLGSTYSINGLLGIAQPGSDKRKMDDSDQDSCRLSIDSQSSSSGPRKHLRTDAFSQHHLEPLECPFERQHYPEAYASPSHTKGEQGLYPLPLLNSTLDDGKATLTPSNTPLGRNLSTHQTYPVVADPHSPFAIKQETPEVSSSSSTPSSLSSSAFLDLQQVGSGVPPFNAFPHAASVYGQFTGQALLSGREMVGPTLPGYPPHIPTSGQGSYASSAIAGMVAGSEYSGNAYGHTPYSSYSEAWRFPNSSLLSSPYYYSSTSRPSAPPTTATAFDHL
The nature of assay [5]: OVCAR-3 cell viability loss – plate reader, dry powder samples, PAX8 inhibitor project, dose response (AID 743044). The assay is classed as functional, cell-based.
A short description of assay [6]: general mammalian cell viability loss – activator set, cherry-pick, cytotoxicity control for miR-122 modulator project, dose response (AID 720690).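 Further: HEK293T human cells scored for general mammalian cytotoxicity.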 In kind it is functional, cell-based.
Assay [7] can be described thus: P. falciparum Dd2 growth inhibitors, dose response, SYBR Green, cherry-picked samples (AID 1159567). In kind it is functional, cell-based.
Assay [8] is described as follows: toxicity to human hepatoma HepG2 cells – cell-based, cherry-picked samples, cytotoxicity control, dose response (AID 1159577). In kind it is functional.
A further assay concerns the target Large T antigen (Simian virus 40, UniProt P03070). In kind it is functional, Betapolyomavirus macacae.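 Further: Confirmatory-stage PubChem screen for compounds that inhibit SV40 T antigen.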
Assay [9] has as its target T1, Bifunctional protein GlmU (Mycobacterium tuberculosis, UniProt P9WMN3).
T1 sequence (P9WMN3 whole entry): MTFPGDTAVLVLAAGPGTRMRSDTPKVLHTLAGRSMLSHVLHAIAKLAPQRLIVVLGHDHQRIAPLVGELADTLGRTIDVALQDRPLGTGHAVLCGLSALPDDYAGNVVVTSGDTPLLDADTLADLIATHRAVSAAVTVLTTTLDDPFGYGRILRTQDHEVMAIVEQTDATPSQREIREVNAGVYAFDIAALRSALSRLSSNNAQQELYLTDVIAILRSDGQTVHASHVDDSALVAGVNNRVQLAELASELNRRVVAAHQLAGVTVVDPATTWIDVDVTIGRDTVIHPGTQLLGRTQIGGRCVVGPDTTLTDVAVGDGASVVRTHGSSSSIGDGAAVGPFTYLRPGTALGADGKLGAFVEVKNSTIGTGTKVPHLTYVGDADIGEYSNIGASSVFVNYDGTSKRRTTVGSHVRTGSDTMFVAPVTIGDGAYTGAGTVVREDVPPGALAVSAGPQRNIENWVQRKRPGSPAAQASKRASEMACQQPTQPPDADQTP
The assay can be described thus: Inhibitors of Mycobacterial Glucosamine-1-phosphate acetyl transferase (GlmU). Secondary screen. Also noted: species or system Mycobacterium tuberculosis H37Rv.

Another assay has as its target Genome polyprotein (dengue virus type 2, UniProt P29990). Kind of assay: flavivirus cap methylation enzyme inhibition – biochemical, confirmation dose response, primary screen (AID 588689). The assay is classed as functional.
The target of assay [10] is T2, Polyadenylate-binding protein 1 (Homo sapiens, UniProt P11940). The assay can be described thus: MLLE binding blockers, Cy5 peptide tracer – biochemical, fluorescence polarization, Cy5-PAM2 peptide, secondary, miRNA deadenylation inhibitor project, dose response (AID 602260). To be noted: read-out: IC50_Mean. In kind it is functional.
T2 sequence (P11940 whole entry, the tested form may be a part): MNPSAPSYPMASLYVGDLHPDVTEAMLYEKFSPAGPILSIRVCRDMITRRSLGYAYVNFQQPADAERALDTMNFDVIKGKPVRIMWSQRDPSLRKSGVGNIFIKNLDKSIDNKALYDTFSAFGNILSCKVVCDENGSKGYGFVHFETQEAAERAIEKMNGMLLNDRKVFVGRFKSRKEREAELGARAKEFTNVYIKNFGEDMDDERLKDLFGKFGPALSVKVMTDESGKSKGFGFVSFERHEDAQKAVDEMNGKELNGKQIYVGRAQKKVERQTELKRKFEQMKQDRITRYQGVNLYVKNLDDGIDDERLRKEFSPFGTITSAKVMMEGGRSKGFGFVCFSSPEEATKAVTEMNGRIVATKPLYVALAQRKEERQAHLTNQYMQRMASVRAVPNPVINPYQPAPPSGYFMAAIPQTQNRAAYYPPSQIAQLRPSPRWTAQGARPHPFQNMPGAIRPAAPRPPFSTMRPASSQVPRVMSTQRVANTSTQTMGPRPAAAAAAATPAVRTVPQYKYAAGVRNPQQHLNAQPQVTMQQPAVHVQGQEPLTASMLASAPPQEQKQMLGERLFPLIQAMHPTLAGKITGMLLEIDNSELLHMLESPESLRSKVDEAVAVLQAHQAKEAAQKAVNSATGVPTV
Assay [11] has as its target T2, Polyadenylate-binding protein 1. Kind of assay: MLLE domain peptide-binding blockers, IC50 – biochemical, fluorescence polarization, FITC-PAM2 peptide, dose response (AID 602259). In kind it is functional. Conditions: read-out: IC50_Mean. (In general: Fluorescence polarisation rises when a labelled molecule tumbles more slowly, as on binding a larger partner.)
A short description of assay [12]: activation of miR-122 Renilla sensor silencing – cell-based, Huh7 psiCHECK-miR122, Renilla luciferase, cherry-picked, dose response (AID 651956).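 Further: huh7 hepatoma cells stably carrying a psiCHECK-2 miR-122 sensor plasmid; renilla luciferase signal reporting endogenous miR-122 activity after 48 h compound exposure.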 The assay is classed as functional.
A short description of assay [13]: general mammalian cell viability loss – inhibitor set, cherry-pick, set 2, cytotoxicity control for miR-122 modulator project, dose response (AID 720697). In kind it is functional, cell-based.
Assay [14] is described as follows: Luminescence-based cell-based high throughput dose response assay to identify activators of the DAF-12 from the parasite S. stercoralis (ssDAF-12). The assay is classed as functional.
Assay [15] concerns the target T3, Oxysterols receptor LXR-beta (Homo sapiens, UniProt P55055).
T3 sequence (P55055 whole entry): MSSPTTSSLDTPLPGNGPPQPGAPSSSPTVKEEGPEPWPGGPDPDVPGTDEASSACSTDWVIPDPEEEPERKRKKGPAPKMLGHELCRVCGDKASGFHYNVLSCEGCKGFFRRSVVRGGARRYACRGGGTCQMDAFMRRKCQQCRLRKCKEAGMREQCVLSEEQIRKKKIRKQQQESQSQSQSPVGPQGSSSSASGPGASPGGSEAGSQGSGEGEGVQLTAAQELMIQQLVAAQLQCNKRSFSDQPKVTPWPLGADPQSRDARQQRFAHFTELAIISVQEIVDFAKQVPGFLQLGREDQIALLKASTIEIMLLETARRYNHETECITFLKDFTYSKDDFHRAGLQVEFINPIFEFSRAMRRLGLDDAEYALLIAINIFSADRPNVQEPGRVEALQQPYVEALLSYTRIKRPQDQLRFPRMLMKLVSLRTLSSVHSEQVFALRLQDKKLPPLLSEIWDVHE
Kind of assay: LXR agonists, Gal4 luciferase reporter, dose response, counter-screen for ssDAF-12 agonist project, cell-based, luminescence, HEK293, S. stercoralis campaign (AID 720737). The assay is classed as functional. Conditions: read-out: IC50 (the source's name). (In a reporter assay the amount or activity of a reporter protein is the signal.)

The subject of assay [16] is BJ. Kind of assay: BJ-TERT fibroblast viability loss – cell-based, RAS-independent, luminescence, dose response (AID 1933). To be noted: Homo sapiens. In kind it is functional.
For assay [17], the system named is BJ. The assay can be described thus: cells. The assay is classed as functional, cell-based. To be noted: Homo sapiens.
Assay [18] concerns BJ. The assay can be described thus: BJ-TERT-LT-ST fibroblast viability loss – cell-based, RAS-independent, luminescence, dose response (AID 1935).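 Further: BJ fibroblasts immortalized with TERT plus LT and ST oncogenes.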 In kind it is functional. Conditions: Homo sapiens.
Assay [19] is described as follows: DRD fibroblast viability loss – cell-based, non-viral oncogenic, luminescence, dose response (AID 1934). The assay is classed as functional. Conditions: Homo sapiens.
Assay [20] can be described thus: general cell-killing toxicity readout – plate reader, dry powder samples, cytotoxicity control for PAX8 inhibitor project, dose response (AID 743021). The assay is classed as functional, cell-based.
Assay [21] addresses Disintegrin and metalloproteinase domain-containing protein 17 (Homo sapiens, UniProt P78536). Kind of assay: exosite inhibitors of ADAM17, dose response, biochemical (AID 743260).
The nature of assay [22]: inhibition of ADAM10 peptide cleavage – biochemical, FRET peptide substrate, recombinant human ADAM10, selectivity assay for ADAM17 exosite inhibitor project, dose response (AID 743259).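 Further: ADAM10 enzyme cleaving a FRET peptide substrate.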

Results on 13 compounds are retold here after ChEMBL document CHEMBL1201862, “PubChem BioAssay data set” (2004).

Active and inactive are the calls of the source.

Sequence of Disintegrin and metalloproteinase domain-containing protein 17 (P78536 whole entry, the tested form may be a part): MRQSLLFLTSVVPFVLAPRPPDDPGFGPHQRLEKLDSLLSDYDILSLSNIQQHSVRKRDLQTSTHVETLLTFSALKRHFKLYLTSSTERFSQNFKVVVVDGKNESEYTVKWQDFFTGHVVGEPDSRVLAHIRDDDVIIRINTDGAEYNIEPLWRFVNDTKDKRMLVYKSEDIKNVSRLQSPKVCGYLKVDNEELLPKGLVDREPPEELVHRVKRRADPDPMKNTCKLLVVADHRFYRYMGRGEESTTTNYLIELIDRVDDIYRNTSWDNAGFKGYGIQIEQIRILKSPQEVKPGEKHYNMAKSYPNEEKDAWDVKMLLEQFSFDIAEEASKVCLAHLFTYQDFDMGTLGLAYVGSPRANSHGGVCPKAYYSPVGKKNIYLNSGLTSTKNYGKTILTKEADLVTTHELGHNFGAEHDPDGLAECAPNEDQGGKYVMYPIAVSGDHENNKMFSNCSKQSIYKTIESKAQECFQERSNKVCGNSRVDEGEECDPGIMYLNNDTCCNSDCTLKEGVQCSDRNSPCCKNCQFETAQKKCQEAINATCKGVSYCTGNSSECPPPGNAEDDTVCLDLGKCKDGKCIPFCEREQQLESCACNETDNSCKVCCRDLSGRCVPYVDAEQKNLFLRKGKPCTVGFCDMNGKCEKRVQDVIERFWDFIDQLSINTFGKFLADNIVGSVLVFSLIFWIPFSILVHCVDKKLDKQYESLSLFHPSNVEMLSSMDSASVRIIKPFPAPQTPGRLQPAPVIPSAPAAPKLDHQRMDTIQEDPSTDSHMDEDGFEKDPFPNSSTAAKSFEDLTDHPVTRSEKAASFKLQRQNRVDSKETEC
Sequence of Large T antigen (P03070 whole entry): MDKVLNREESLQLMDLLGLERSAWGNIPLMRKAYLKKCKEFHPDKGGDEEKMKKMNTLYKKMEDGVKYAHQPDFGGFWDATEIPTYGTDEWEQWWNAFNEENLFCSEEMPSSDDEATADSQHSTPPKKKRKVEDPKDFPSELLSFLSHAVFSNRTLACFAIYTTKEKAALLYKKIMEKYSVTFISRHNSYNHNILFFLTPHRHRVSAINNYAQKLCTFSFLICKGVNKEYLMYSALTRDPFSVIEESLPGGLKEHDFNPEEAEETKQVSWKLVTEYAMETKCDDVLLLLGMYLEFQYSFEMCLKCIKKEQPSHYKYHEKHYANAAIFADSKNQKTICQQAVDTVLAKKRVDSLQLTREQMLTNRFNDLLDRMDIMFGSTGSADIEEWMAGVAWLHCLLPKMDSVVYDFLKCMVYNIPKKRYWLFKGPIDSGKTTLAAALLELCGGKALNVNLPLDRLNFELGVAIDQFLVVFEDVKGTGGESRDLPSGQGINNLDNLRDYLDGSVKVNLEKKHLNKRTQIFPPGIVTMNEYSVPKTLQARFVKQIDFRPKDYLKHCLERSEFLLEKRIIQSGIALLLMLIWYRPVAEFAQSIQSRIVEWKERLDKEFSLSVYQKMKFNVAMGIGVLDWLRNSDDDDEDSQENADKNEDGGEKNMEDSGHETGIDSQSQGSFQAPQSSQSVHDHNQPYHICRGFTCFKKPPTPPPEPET
Sequence of Genome polyprotein (P29990 2492-3391 limits assumed): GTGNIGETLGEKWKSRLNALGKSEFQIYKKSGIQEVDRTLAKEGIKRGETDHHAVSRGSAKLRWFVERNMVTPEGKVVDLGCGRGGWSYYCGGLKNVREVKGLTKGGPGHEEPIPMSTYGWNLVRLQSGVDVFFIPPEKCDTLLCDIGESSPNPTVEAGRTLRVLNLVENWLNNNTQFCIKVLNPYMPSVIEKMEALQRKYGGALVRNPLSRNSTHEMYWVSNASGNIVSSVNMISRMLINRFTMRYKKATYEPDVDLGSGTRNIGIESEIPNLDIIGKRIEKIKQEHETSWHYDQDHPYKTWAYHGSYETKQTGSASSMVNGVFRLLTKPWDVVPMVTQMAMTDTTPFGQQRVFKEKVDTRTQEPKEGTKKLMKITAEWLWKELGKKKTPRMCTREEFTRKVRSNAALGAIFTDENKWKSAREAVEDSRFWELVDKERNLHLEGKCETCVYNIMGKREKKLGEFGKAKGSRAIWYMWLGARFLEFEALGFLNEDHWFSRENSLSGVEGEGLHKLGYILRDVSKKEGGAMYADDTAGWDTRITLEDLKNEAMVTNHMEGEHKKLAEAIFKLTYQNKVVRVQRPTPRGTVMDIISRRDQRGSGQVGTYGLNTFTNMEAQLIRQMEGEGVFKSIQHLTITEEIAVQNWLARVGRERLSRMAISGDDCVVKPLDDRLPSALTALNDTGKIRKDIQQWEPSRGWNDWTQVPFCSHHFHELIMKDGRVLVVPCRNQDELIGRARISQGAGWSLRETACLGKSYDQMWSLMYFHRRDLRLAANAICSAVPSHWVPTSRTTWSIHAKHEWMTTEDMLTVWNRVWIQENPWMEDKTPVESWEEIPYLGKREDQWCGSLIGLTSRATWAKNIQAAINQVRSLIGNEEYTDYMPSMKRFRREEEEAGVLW

The AC50 is the concentration giving half of the maximal activity seen. On to `O=C(O)c1cccc(-c2nc3ccccc3[nH]2)c1`, for which the AC50 is > 52 µM (inactive) in assay [1], > 52 µM (inactive) in assay [2], 1.54 µM (active) in assay [3] and 1.5 µM (active) in assay [4].

With `COCC(=O)N1CCCCN2[C@H](C1)[C@@H](c1ccc(-c3ccc(C)cc3)cc1)[C@@H]2CO`, the AC50 on Paired box protein Pax-8 is 58.9 µM (active); in [5] it was 56.3 µM (active).

For the compound `C/C=C/c1ccc([C@@H]2[C@H](CO)N[C@H]2CN(CC(C)C)C(=O)c2ccccn2)cc1`, the concentration at half-maximal activity (AC50) in assay [6] was 23.5 µM (active).

For the compound `OC[C@@H]1[C@H](c2ccc(-c3ccc(F)cc3)cc2)[C@H](CNC2CCCC2)N1CCC(F)(F)F`, the AC50 in assay [7] is 2.51 µM (active); in assay [8], 16.5 µM (active).

As for `COc1ccc(S(=O)(=O)Nc2ccc3c(c2)CC(=O)N([C@@H](C)CO)C[C@@H](C)[C@H](CN(C)Cc2ccc(-c4ccccc4)cc2)O3)cc1`, the figures for the concentration at half-maximal activity (AC50) (at Paired box protein Pax-8; in assay [6]) were 6.29 µM (active) and 17.5 µM (active), respectively.

Regarding `O=C(O)c1ccc(Nc2cc(Cl)c3nonc3c2[N+](=O)[O-])cc1`, the IC50 is 76.6 µM (active) at Large T antigen; 92 µM (active) in [9]; 12 µM (active) on Genome polyprotein; > 66 µM (inactive) in assay [10]; > 66 µM (inactive) in [11].

For `C[C@@H]1CN([C@H](C)CO)C(=O)c2cc(NC(=O)Nc3ccc(C(F)(F)F)cc3)ccc2O[C@@H]1CN(C)CC1CCCCC1`, the concentration at half-maximal activity (AC50) in [12] was 32.8 µM (active); in [13] it was 10.2 µM (active).

With `Cc1onc(-c2ccccc2)c1C(=O)OCC(=O)c1ccc(F)cc1`, the IC50 in assay [14] was > 67.5 µM (inactive). Further, the EC50 in [15] is > 67.5 µM (inactive).

Consider `CN(/N=C/c1cccnc1)c1cnc2ccccc2n1`, for which, in assay [14], the IC50 was > 67.5 µM (inactive). Moreover, the EC50 in assay [15] was > 67.5 µM (inactive).

In the case of `O=C(NC1CCCCC1)C(c1cccnc1)N(C(=O)CCl)c1ccccc1Cl` (stereo not drawn), the EC50 was 3.94 µM (inconclusive) with BJ [16], > 150 µM (not active) in the assay on BJ [17], > 150 µM (not active) in the assay on BJ [18] and 37.3 µM (active) in [19]. Moreover, the AC50 at Paired box protein Pax-8 was 6.05 µM (active); in assay [20] it was 11.2 µM (active).

For the compound `O=C(Nc1ccccc1)N1CCCCN2[C@@H](CO)[C@H](c3ccc(C4=CCCCC4)cc3)[C@@H]2C1`, the AC50 in assay [12] and in assay [6] was 10 µM (active) throughout.

For the compound `CCCn1c(CCNc2nc(-c3cccc(Br)c3)cs2)nc2ccccc21`, the IC50 in assay [21] and in assay [22] was > 69.6 µM (inactive) in each case.

For `Sc1n[nH]c(-c2sccc2OCc2ccc(Cl)cc2Cl)n1`, the IC50 in assay [22] is > 69.5 µM (inactive).
